From patent publication US20250320228A1, “PYRIDO[3,2-D]PYRIMIDINES AS HPK1 INHIBITORS” (Merck Patent GmbH, priority 2022, published 2025)

How the values were obtained:
[1] = biological target: full-length human HPK1 (MAP4K1) (Homo sapiens (Human), UniProt Q92918); assay: HPK1 kinase assay (biochemical, ADP-Glo); conditions: GST-HPK1 3.2 nM, 10 μM ATP, MBP substrate, ADP-Glo; read-out: HPK1 enzymatic IC50
Description: HPK1 kinase assay (Biochemical assay).
A recombinant fusion protein consisting of full-length human HPK1 (MAP4K1) with an N-terminal Glutatione S-transferase (GST) tag was produced in insect cells Sf21 using the baculovirus expression system. GST-HPK1 protein was purified from cell lysates by glutathione Sepharose affinity chromatography. The assay is run in three continuous steps: 1) the HPK1 enzymatic kinase reaction, 2) an ATP depletion, and 3) the ADP detection, the steps 2 and 3 are performed with ADP-Glo™ Kinase Assay kit from Promega (V9101). Test compounds were prepared by 10-point serial dilution in dimethyl sulfoxide (DMSO) and 100 nL of each dilution was spotted onto a 384-well Optiplate (Perkin Elmer and Cat #6007299) by Labcyte Echo. 5 μL kinase reaction buffer (0.02% Brij-35, 2 mM DTT, 50 mM HEPES pH 7.5, MgCl2 10 mM, BSA 0.01% and β-glycerophosphate 12.5 mM) containing HPK1 (3.2 nM) enzyme was transferred to each well and incubated for 15 minutes at room temperature at 60% humidity. The enzymatic reaction was started by adding 5 μl of Start-Mix (10 μM ATP and 3.235 μM MBP). After 120 minutes, the reaction was stopped by adding 5 μL of ADP-Glo reagent (Promega, V9101) and incubating for 40 min. in the dark at 23° C. To determine the level of ADP, 10 μl ADP-Glo Detection solution was added and incubated for 1 hour at 23° C. in the dark. The plate was transferred to a Perkin Elmer EnVision (2104 Multilabel Reader) for luminescence detection and percent inhibition activity and IC50 value were determined using Genedata Screener.

HPK1 pSLP76 (Ser376) = assay: Cellular assay phospho-SLP-76 (Ser376); type: cell-based, human; conditions: SLP76 Ser376 phosphorylation after αCD3/αCD28 stimulation; Jurkat (human) or EL-4 (mouse) cells, table does not say which; read-out: HPK1 pSLP76 IC50
Procedure: Cellular Assay—Phospho-SLP-76 (Ser376).
Inhibition of HPK1 enzymatic activity in cells was determined by detection of SLP76 phosphorylation at Ser376 residue in lysate from Jurkat (human) and EL-4 (mouse) cells. Jurkat and EL-4 cells express both HPK1 and SLP76 naturally. All cells were cultured in RPMI 1640 media containing 10% heat inactivated fetal bovine serum (FBS) and 1× Penicillin-Streptomycin. In either Jurkat or El-4 assay, cells were pre-incubated with test compounds prior to T cell stimulation by respective αCD3/αCD28 Dynabeads™. For detection, plates were read on the Envision and percent inhibition and IC50 were determined by Smart fit in Genedata Analyzer.
For Jurkat cells: 35 μL cell suspension were dispensed at a density of 30,000 cells/well in 384-well plates containing HBSS (Gibco, 14025076)+0.1% BSA). 10-point logarithmic serial dilution of test compounds in DMSO were prepared by a Hamilton automated liquid handling robot and 35 nL was transferred into each well by an Echo liquid handler. After 60 min. pre-incubation, the cells were stimulated by adding 5 μL human T activator αCD3/αCD28 Dynabeads™ (Gibco, 11132D) at 1.2×107 beads/ml for 15 minutes at 37° C. Detection of Ser376 phosphorylation status was accomplished by first adding 10 μL of 5× AlphaLISA lysis buffer (Perkin Elmer, ALSU-PSLP-A500) to each well of the cell plate using a Multidrop Combi (5840300), followed by 20 minutes shaking. 10 μL cell lysate from each treatment were then transferred to a white 384-well plate (Corning 3572) and incubated with AlphaLISA acceptor beads for one hour (AlphaLISA SureFire Ultra p-SLP76 (Ser376), Perkin Elmer, ALSU-PSLP-A500), and donor beads for additional 2 hours at room temperature in the dark. […]

Sequence of full-length human HPK1 (MAP4K1) (Q92918 whole entry): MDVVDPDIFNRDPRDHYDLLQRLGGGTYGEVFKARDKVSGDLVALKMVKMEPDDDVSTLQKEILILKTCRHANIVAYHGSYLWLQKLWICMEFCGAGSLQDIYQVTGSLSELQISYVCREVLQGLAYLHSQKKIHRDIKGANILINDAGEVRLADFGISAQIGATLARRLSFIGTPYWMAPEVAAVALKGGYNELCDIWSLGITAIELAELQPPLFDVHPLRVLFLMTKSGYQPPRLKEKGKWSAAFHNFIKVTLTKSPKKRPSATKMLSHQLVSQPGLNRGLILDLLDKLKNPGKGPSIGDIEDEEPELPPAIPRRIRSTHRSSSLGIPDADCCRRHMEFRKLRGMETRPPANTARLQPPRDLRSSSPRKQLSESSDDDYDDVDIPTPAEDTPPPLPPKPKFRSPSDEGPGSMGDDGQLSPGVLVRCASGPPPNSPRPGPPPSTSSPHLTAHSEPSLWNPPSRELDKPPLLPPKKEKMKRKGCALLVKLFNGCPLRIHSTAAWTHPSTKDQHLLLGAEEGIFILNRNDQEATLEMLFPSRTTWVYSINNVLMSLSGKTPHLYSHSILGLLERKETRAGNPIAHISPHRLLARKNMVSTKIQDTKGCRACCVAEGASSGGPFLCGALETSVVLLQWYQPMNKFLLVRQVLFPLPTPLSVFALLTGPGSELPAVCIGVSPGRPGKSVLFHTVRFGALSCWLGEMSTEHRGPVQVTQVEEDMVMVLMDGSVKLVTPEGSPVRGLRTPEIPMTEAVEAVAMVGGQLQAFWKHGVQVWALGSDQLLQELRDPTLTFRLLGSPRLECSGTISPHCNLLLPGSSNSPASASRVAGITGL

SMILES | IC50 [1] | IC50 (HPK1 pSLP76 (Ser376))
NC(=O)c1cc(-c2ccc(OCCCN3CCOCC3)cc2)nc2c(N[C@H]3CCCNC3)ncnc12 [Example 52, (S)-6-(4-(3-morpholinopropoxy)phenyl)-4-(piperidin-3-ylamino)pyrido[3,2-d]pyrimidine-8-carboxamide] | < 100 nM | < 500 nM
NC(=O)c1cc(-c2ccc(CN3CC[C@H](F)C3)cc2)nc2c(N[C@H]3CCCNC3)ncnc12 [Example 60, 6-(4-[[(3S)-3-fluoropyrrolidin-1-yl]methyl]phenyl)-4-[(3S)-piperidin-3-ylamino]pyrido[3,2-d]pyrimidine-8-carboxamide] | < 100 nM | 
CC(O)(C#N)COc1ccc(-c2cc(C(N)=O)c3ncnc(N[C@H]4CCCNC4)c3n2)cc1 (stereo partly drawn) [Example 40, 6-(4-(2-cyano-2-hydroxypropoxy)phenyl)-4-(((S)-piperidin-3-yl)amino)pyrido[3,2-d]pyrimidine-8-carboxamide] | < 100 nM | > 1000 nM
C[C@@H]1COC[C@H](C)N1Cc1ccc(-c2cc(C(N)=O)c3ncnc(N[C@@H]4CNCCC4(F)F)c3n2)cc1 [Example 29, 4-[[(3R)-4,4-difluoropiperidin-3-yl]amino]-6-(4-[[(3R,5S)-3,5-dimethylmorpholin-4-yl]methyl]phenyl)pyrido[3,2-d]pyrimidine-8-carboxamide] | < 100 nM | > 1000 nM
COc1ccccc1-c1cc(C(N)=O)c2ncnc(N[C@H]3CCCNC3)c2n1 [Example 72, 6-(2-methoxyphenyl)-4-[(3S)-piperidin-3-ylamino]pyrido[3,2-d]pyrimidine-8-carboxamide] | < 100 nM | > 1000 nM
NC(=O)c1cc(-c2ccc(CN3CC4CC(C3)O4)cc2)nc2c(N[C@H]3CCCNC3)ncnc12 [Example 63, 6-(4-[6-oxa-3-azabicyclo [3.1.1]heptan-3-ylmethyl]phenyl)-4-[(3S)-piperidin-3-ylamino]pyrido[3,2-d]pyrimidine-8-carboxamide] | < 100 nM | < 500 nM
CN1CC=C(c2cc(C(N)=O)c3ncnc(N[C@H]4CCCNC4)c3n2)CC1 [Example 73, 6-(1-methyl-1,2,3,6-tetrahydropyridin-4-yl)-4-{[(3S)-piperidin-3-yl]amino}pyrido[3,2-d]pyrimidine-8-carboxamide] | > 1000 nM | 
NC(=O)c1cc(-c2ccc(OCC3(O)CC3)cc2)nc2c(N[C@@H]3CNCCC3(F)F)ncnc12 [Example 16, (R)-4-((4,4-difluoropiperidin-3-yl)amino)-6-(4-((1-hydroxycyclopropyl)methoxy)phenyl)pyrido[3,2-d]pyrimidine-8-carboxamide] | < 100 nM | < 500 nM
COCCn1cc(-c2cc(C(N)=O)c3ncnc(N[C@H]4CCCNC4)c3n2)cn1 [Example 19, (S)-6-(1-(2-methoxyethyl)-1H-pyrazol-4-yl)-4-(piperidin-3-ylamino)pyrido[3,2-d]pyrimidine-8-carboxamide] | < 100 nM | 
NC(=O)c1cc(C=C2CCOC2)nc2c(N[C@H]3CCCNC3)ncnc12 (stereo in doubt) [Example 80, 6-{[(3Z)-oxolan-3-ylidene]methyl}-4-{[(3S)-piperidin-3-yl]amino}pyrido[3,2-d]pyrimidine-8-carboxamide] | 100 to 1000 nM | 
NC(=O)c1cc(-c2ccc(CN3CCOC[C@H]3C(F)(F)F)cc2)nc2c(N[C@H]3CCCNC3)ncnc12 [Example 15] |  | < 500 nM
Cc1cc(-c2cc(C(N)=O)c3ncnc(N[C@@H]4CNC[C@@H](F)C4)c3n2)sn1 [Example 6, 4-{[(3S,5S)-5-fluoropiperidin-3-yl]amino}-6-(3-methyl-1,2-thiazol-5-yl)pyrido[3,2-d]pyrimidine-8-carboxamide] | < 100 nM | 
NC(=O)c1cc(C=C2CCOCC2)nc2c(N[C@H]3CCCNC3)ncnc12 [Example 85, 6-[(oxan-4-ylidene)methyl]-4-{[(3S)-piperidin-3-yl]amino}pyrido[3,2-d]pyrimidine-8-carboxamide] | > 1000 nM | 
COc1ccc(-c2cc(C(N)=O)c3ncnc(N[C@@H]4CNCC(F)(F)C4)c3n2)cc1 [Example 11, (S)-4-((5,5-difluoropiperidin-3-yl)amino)-6-(4-methoxyphenyl)pyrido[3,2-d]pyrimidine-8-carboxamide] | 100 to 1000 nM | 
NCCNc1ncnc2c(C(N)=O)cc(-c3ccc(CN4CCOCC4)cc3)nc12 [Example 23, 4-((2-aminoethyl)amino)-6-(4-(morpholinomethyl)phenyl)pyrido[3,2-d]pyrimidine-8-carboxamide] | < 100 nM | 
NC(=O)c1cc(-c2ccc(CN3CCOCC3)cc2)nc2c(NC34CNCC3C4)ncnc12 (stereo not drawn) [Example 20] |  | > 1000 nM
N#Cc1c(-c2cc(C(N)=O)c3ncnc(N[C@@H]4CNC[C@@H](F)C4)c3n2)ccc2ncccc12 [Example 2, 6-(5-cyanoquinolin-6-yl)-4-{[(3S,5S)-5-fluoropiperidin-3-yl]amino}pyrido[3,2-d]pyrimidine-8-carboxamide] | < 100 nM | 
NC(=O)c1cc(-c2ccc(CN3CCOCC3)cc2)nc2c(N[C@H]3CCCCNC3)ncnc12 [Example 21] | 100 to 1000 nM | 
N#C[C@H]1COCCN1Cc1ccc(-c2cc(C(N)=O)c3ncnc(N[C@H]4CCCNC4)c3n2)cc1 [Example 14] |  | > 1000 nM
NC(=O)c1cc(-c2cccnc2C(F)(F)F)nc2c(N[C@H]3CCCNC3)ncnc12 [Example 87, 4-{[(3S)-piperidin-3-yl]amino}-6-[2-(trifluoromethyl)pyridin-3-yl]pyrido[3,2-d]pyrimidine-8-carboxamide] | 100 to 1000 nM | 
N#Cc1cc(C(F)F)ccc1-c1cc(C(N)=O)c2ncnc(N[C@@H]3CNCC(F)(F)C3)c2n1 [Example 10, (S)-6-(2-cyano-4-(difluoromethyl)phenyl)-4-((5,5-difluoropiperidin-3-yl)amino)pyrido[3,2-d]pyrimidine-8-carboxamide] | 100 to 1000 nM | 
NC(=O)c1cc(CC2CCOC2)nc2c(N[C@H]3CCCNC3)ncnc12 (stereo partly drawn) [Example 84, 6-[(oxolan-3-yl)methyl]-4-{[(3S)-piperidin-3-yl]amino}pyrido[3,2-d]pyrimidine-8-carboxamide] | > 1000 nM | 
CC(C)n1cc(-c2cc(C(N)=O)c3ncnc(N[C@H]4CCCNC4)c3n2)cn1 [Example 78, 4-{[(3S)-piperidin-3-yl]amino}-6-[1-(propan-2-yl)-1H-pyrazol-4-yl]pyrido[3,2-d]pyrimidine-8-carboxamide] | < 100 nM | 
NC(=O)c1cc(CC2CCOCC2)nc2c(N[C@H]3CCCNC3)ncnc12 [Example 88, 6-[(oxan-4-yl)methyl]-4-{[(3S)-piperidin-3-yl]amino}pyrido[3,2-d]pyrimidine-8-carboxamide] | > 1000 nM | 
NC(=O)c1cc(-c2cnn(C(F)F)c2)nc2c(N[C@H]3CCCNC3)ncnc12 [Example 77, 6-[1-(difluoromethyl)-1H-pyrazol-4-yl]-4-{[(3S)-piperidin-3-yl]amino}pyrido[3,2-d]pyrimidine-8-carboxamide] | < 100 nM | 
NC(=O)c1cc(-c2cc(F)c(OCC3(O)CCC3)c(F)c2)nc2c(N[C@H]3CCCNC3)ncnc12 [Example 39, (S)-6-(3,5-difluoro-4-((1-hydroxycyclobutyl)methoxy)phenyl)-4-(piperidin-3-ylamino)pyrido[3,2-d]pyrimidine-8-carboxamide] |  | < 500 nM
CN1CCc2cc(-c3cc(C(N)=O)c4ncnc(N[C@H]5CCCNC5)c4n3)nn2CC1=O [Example 45, (S)-6-(6-methyl-7-oxo-5,6,7,8-tetrahydro-4H-pyrazolo[1,5-d][1,4]diazepin-2-yl)-4-(piperidin-3-ylamino)pyrido[3,2-d]pyrimidine-8-carboxamide] |  | > 1000 nM
